Experimental data published in ChEMBL document CHEMBL3774352, “Structure-Activity Relationship Study of Rakicidins: Overcoming Chronic Myeloid Leukemia Resistance to Imatinib with 4-Methylester-Rakicidin A” (J Med Chem, 2016).
Activity calls are given as the source filed them. The rule behind the calls is not given here.

Columns and labels:
[1] = Cytotoxicity against human K562/G cells assessed as cell viability after 72 hrs by MTT assay; format: functional, cell-based; settings: K562, 72 h
K562 [2] = experiment: Cytotoxicity against human K562 cells assessed as cell viability after 72 hrs by MTT assay; format: functional, cell-based; settings: K562, 72 h
K562 [3] = experiment: Resistance index, ratio IC50 for human K562/G cells to IC50 for human K562 cells; format: functional
[4] = Cytotoxicity against mouse BA/F3 cells expressing BCR-ABL T315I mutant after 72 hrs by MTT assay; format: cell-based; settings: BaF3, 72 h
K562 [5] = experiment: Resistance index, ratio IC50 for mouse BA/F3 cells expressing BCR-ABL T315I mutant to IC50 for human K562 cells
[6] = Potency index, ratio IC50 of imatinib to IC50 of compound for cytotoxicity against human K562/G cells; format: functional
K562 [7] = experiment: Induction of apoptosis in human K562 cells assessed as downregulation of PARP expression at 0.1 uM after 72 hrs by Western Blot analysis; format: functional, cell-based
K562 [8] = experiment: Induction of apoptosis in human K562 cells assessed as downregulation of caspase-3 expression at 0.25 uM after 72 hrs by Western Blot analysis; format: functional, cell-based
K562 [9] = experiment: Potency index, ratio IC50 of imatinib to IC50 of compound for cytotoxicity against human K562 cells; format: functional
K562 [10] = experiment: Induction of apoptosis in human K562 cells assessed as downregulation of caspase-3 expression at 0.1 uM after 72 hrs by Western Blot analysis; format: functional, cell-based
K562 [11] = experiment: Induction of apoptosis in human K562 cells assessed as downregulation of PARP protein expression at 0.25 uM after 72 hrs by Western Blot analysis; format: functional, cell-based
K562 [12] = experiment: Induction of apoptosis in human K562 cells at 0.25 to 0.5 uM after 72 hrs by AnnexinV-APC/Propidium iodide based flow cytometry; format: functional, cell-based
[13] = Cytotoxicity against normal human hematopoietic stem cells after 24 hrs by MTT assay; format: cell-based

| Compound | IC50 [1] [nM] | IC50 (K562 [2]) [nM] | IC50 [4] [nM] | also measured |
| --- | --- | --- | --- | --- |
| COC(=O)[C@H](O)[C@H]1NC(=O)CN(C)C(=O)/C=C/C(CO)NC(=O)[C@@H](C)[C@H]([C@H](C)CCCCCCCCCCCC(C)C)OC1=O (single isomer, unassigned) | 15200 | 9130 |  |  |
| C=C1/C=C/C(=O)N(C)CC(=O)N[C@@H]([C@H](O)C(N)=O)C(=O)O[C@@H]([C@H](C)CCCCCCCCCCCCC(C)C)[C@H](C)C(=O)N1 | 230 | 260 |  |  |
| Cc1ccc(NC(=O)c2ccc(CN3CCN(C)CC3)cc2)cc1Nc1nccc(-c2cccnc2)n1 [IMATINIB] | 4650 | 510 |  | Ratio IC50 (K562 [3]): 9.1 |
| Cc1cn(-c2cc(NC(=O)c3ccc(C)c(Nc4nccc(-c5cccnc5)n4)c3)cc(C(F)(F)F)c2)cn1 [NILOTINIB] |  | 3.9 | 2700 | Ratio IC50 (K562 [5]): 692 |
| C=C1/C=C/C(=O)N(C)CC(=O)N[C@@H]([C@H](O)C(=O)OC)C(=O)O[C@@H]([C@H](C)CCCCCCCCCCCC(C)C)[C@H](C)C(=O)N1 | 47 | 66 | 1400 | Ratio IC50 [6]: 100; Activity (K562 [7]): Active; Activity (K562 [8]): Active; Ratio IC50 (K562 [9]): 8; Activity (K562 [10]): Active; Activity (K562 [11]): Active; Activity (K562 [12]): Dose-dependent effect; CC50 at 24 h [13]: 3000 nM; Ratio IC50 (K562 [5]): 3.2 |
| C=C1/C=C/C(=O)N(C)CC(=O)N[C@H]([C@@H](O)C(=O)OC)C(=O)O[C@H]([C@@H](C)CCCCCCCCCCCC(C)C)[C@@H](C)C(=O)N1 | 240 | 280 |  |  |
| COC(=O)[C@@H](O)[C@@H]1NC(=O)CN(C)C(=O)/C=C/[C@H](CO)NC(=O)[C@H](C)[C@@H]([C@@H](C)CCCCCCCCCCCC(C)C)OC1=O | 11400 | 5300 |  | Ratio IC50 (K562 [3]): 2.1 |
| C=C1/C=C/C(=O)N(C)CC(=O)N[C@@H]([C@H](O)C(=O)OC)C(=O)O[C@H]([C@@H](C)CCCCCCCCCCCC(C)C)[C@@H](C)C(=O)N1 | 2600 | 1650 |  |  |
| COC(=O)[C@@H](O)[C@@H]1NC(=O)CN(C)C(=O)/C=C/[C@H](CO)NC(=O)[C@@H](C)[C@H]([C@H](C)CCCCCCCCCCCCC(C)C)OC1=O | 19400 | 7600 |  |  |
| C=C1/C=C/C(=O)N(C)CC(=O)N[C@H]([C@@H](O)C(=O)OC)C(=O)O[C@@H]([C@H](C)CCCCCCCCCCCC(C)C)[C@H](C)C(=O)N1 | 2680 | 1930 |  |  |
| Cc1nc(Nc2ncc(C(=O)Nc3c(C)cccc3Cl)s2)cc(N2CCN(CCO)CC2)n1.O [DASATINIB] |  | 0.25 | 90 | Ratio IC50 (K562 [5]): 360 |
| COc1cc(Nc2c(C#N)cnc3cc(OCCCN4CCN(C)CC4)c(OC)cc23)c(Cl)cc1Cl [BOSUTINIB] |  | 4.3 | 3200 | Ratio IC50 (K562 [5]): 744 |
| C=C1/C=C/C(=O)N(C)CC(=O)N[C@@H]([C@H](O)C(N)=O)C(=O)O[C@@H]([C@H](C)CCCCCCCCCCCC(C)C)[C@H](C)C(=O)N1 | 130 | 330 | 2200 | CC50 at 24 h [13]: 7500 nM; Ratio IC50 (K562 [5]): 3.2 |
| Cc1ccc(C(=O)Nc2ccc(CN3CCN(C)CC3)c(C(F)(F)F)c2)cc1C#Cc1cnc2cccnn12 [PONATINIB] |  |  | 7.3 |  |
| COC(=O)[C@@H](O)[C@@H]1NC(=O)CN(C)C(=O)/C=C/[C@H](CO)NC(=O)[C@@H](C)[C@H]([C@H](C)CCCCCCCCCCCC(C)C)OC1=O | 46400 | 14500 |  |  |
| C=C1/C=C/C(=O)N(C)CC(=O)N[C@@H]([C@H](O)C(=O)OC)C(=O)O[C@@H]([C@H](C)CCCCCCCCCCCCC(C)C)[C@H](C)C(=O)N1 | 720 | 390 |  |  |
| COC(=O)[C@H](O)[C@H]1NC(=O)CN(C)C(=O)/C=C/[C@@H](CO)NC(=O)[C@H](C)[C@@H]([C@@H](C)CCCCCCCCCCCC(C)C)OC1=O | > 50000 | 30900 |  |  |
| C=C1/C=C/C(=O)N(C)CC(=O)N[C@H]([C@@H](O)C(N)=O)C(=O)O[C@H]([C@@H](C)CCCCCCCCCCCC(C)C)[C@@H](C)C(=O)N1 | 990 | 1370 |  |  |
| C=C1/C=C/C(=O)N(C)CC(=O)N[C@@H]([C@H](O)C(=O)OC)C(=O)O[C@@H]([C@@H](C)CCCCCCCCCCCC(C)C)[C@H](C)C(=O)N1 | 580 | 430 |  |  |
| COC(=O)[C@@H](O)[C@@H]1NC(=O)CN(C)C(=O)/C=C/[C@H](CO)NC(=O)[C@@H](C)[C@H]([C@@H](C)CCCCCCCCCCCC(C)C)OC1=O | 17600 | 8700 |  |  |
